# Assay results reported in patent US20200276174A1, “CYCLIN-DEPENDENT KINASE INHIBITORS IN COMBINATION WITH ANTHRACYCLINES FOR TREATMENT OF CANCER” (TOLERO PHARMACEUTICALS, INC., priority 2018, published 2020).
# Where “and” joins values, the source holds several entries; their conditions need not be identical. Equal entries are not always repeated. Where two headings read alike, the source gives them in different places.
# Legend:
# [1] = test system: AML cell lines (OCI-AML3, U937, Molm-13, MV4-11); test: 72-hour viability assay using CellTiter-Glo, single agents in AML cell lines; format: cell-based; details: for comparison of IC50s/activity across cell lines: single agent; for IC50: read-out: single agent IC50 values
# Experimental: (A) OCI-AML3, (B) U937, (C) Molm-13, and (D) MV4-11 cells were treated with alvocidib, cytarabine, or daunorubicin, as single agents, in viability assays using CellTiter-Glo according to manufacturer protocol.
# MV4-11 AML xenograft = MV4-11 AML xenograft model; format: in vivo, female athymic nude mice
# Experimental: Alvocidib with a cytarabine and daunorubicin regimen were tested in vivo in the MV4-11 AML xenograft model using female athymic nude mice.
# ACD (alvocidib+cytarabine+daunorubicin) is an active regimen in MV4-11 AML xenografts. (A) Tumor volume measurements show decreases following the sequential dosing of alvocidib (qdx2), cytarabine (qdx2), and daunorubicin (qdx1). This five day cycle was repeated twice. […] Doses indicated in mg/kg.
# Treatment of alvocidib (1.25 mg/kg) yielded 60.0% TGI.
# previously untreated AML = details: for MRD− (%) / MRD−, number of patients: of all patients evaluable for response
# Experimental: The starting dose of alvocidib is 20 mg/m^2 as a 30-minute intravenous (IV) bolus followed by 30 mg/m^2 over 4 hours as an IV infusion administered daily on Days 1-3 of induction. The dose of alvocidib administered in the IV infusion is escalated in 10 mg/m^2 increments to 60 mg/m^2 to determine the maximum tolerated dose and to identify any dose limiting toxicity.
# Beginning on Day 5, cytarabine is administered as a 100 mg/m^2/day continuous IV infusion for seven consecutive days (Days 5-11) plus daunorubicin administered at a bolus dosage of 60 mg/m^2 IV on Days 5-7.
# The key eligibility criteria were: ages 18-65 years, previously untreated AML, ECOG PS 0-2, and no major organ dysfunction. Treatment consisted of increasing dose levels of alvocidib starting at 20 mg/m^2 as a 30-minute IV bolus followed by 30 mg/m^2 over 4 hours on days 1-3, cytarabine 100 mg/m^2/day by continuous IV infusion on days 5-11, followed by (e.g., followed about 30 minutes later by) daunorubicin 60 mg/m^2 IV on days 5-7. Dose escalation portion was assessed by standard 3+3 design. All patients received a day 14 bone marrow biopsy. Reinduction therapy with alvocidib (same dose as induction) days 1-3, followed by cytarabine 100 mg/m^2/day continuous IV on days 5-9, and daunorubicin 45 mg/m^2 IV days 5-6 was recommended in patients with >10% and >5% cellularity and blasts, respectively.
# [2] = test system: MCL-1 expression in MV4-11 cells; test: MCL-1 expression during the alvocidib+cytarabine+daunorubicin regimen modeled in vitro; format: cell-based; details: alvocidib 80 nM, washed out prior to cytarabine (100 nM) addition, daunorubicin 3 nM, in sequence
# Experimental: MCL-1 expression during the alvocidib+cytarabine+daunorubicin regimen was modeled in vitro. MV4-11 cells were treated with alvocidib (80 nM), cytarabine (100 nM), or daunorubicin (3 nM), in the sequence shown. Alvocidib (or palbociclib) was washed out prior to cytarabine addition.
# [3] = statement only; prodrugs described in WO 2016/187316; cited from earlier work
# [4] = 72-hour viability, CellTiter-Glo, one range printed for all three agents over OCI-AML3, U937, Molm-13, MV4-11
# [5] = Intermediate- and High-risk, evaluable for MRD status N = 9, alvocidib plus 7+3
# [6] = Intermediate- and High-risk, evaluable for response N = 10, alvocidib plus 7+3
# [7] = Intermediate- and High-risk, alvocidib plus 7+3
compound,measurement,setting,value
COc1cccc2c1C(=O)c1c(O)c3c(c(O)c1C2=O)C[C@@](O)(C(C)=O)C[C@@H]3O[C@H]1C[C@H](N)[C@H](O)[C@H](C)O1 [daunorubicin],comparison of IC50s/activity across cell lines,[1]; 72-hour viability,"differing activities in Molm-13, in comparison to OCI-AML3"
same,IC50,[1]; 72 h,2.2 to 567 nM
same,tumor growth inhibition (TGI),MV4-11 AML xenograft; single agent daunorubicin 0.5 mg/kg,21.1%
Nc1ccn([C@@H]2O[C@H](CO)[C@@H](O)[C@@H]2O)c(=O)n1 [cytarabine],IC50,[1]; [4],2.2 to 567 nM
same,comparison of IC50s/activity across cell lines,[1]; 72-hour viability,"differing activities in Molm-13, in comparison to OCI-AML3"
same,tumor growth inhibition (TGI),MV4-11 AML xenograft; single agent cytarabine 60 mg/kg,48.5%
CN1CC[C@H](c2c(O)cc(O)c3c(=O)cc(-c4ccccc4Cl)oc23)[C@H](O)C1 [alvocidib],MRD− (%),"previously untreated AML; All Risks, alvocidib plus 7+3",(67) %
same,"MRD−, number of patients","previously untreated AML; All Risks, alvocidib plus 7+3",10/15
same,"MRD− Evaluable, number of patients","previously untreated AML; All Risks, patients evaluable for MRD status N = 14, alvocidib plus 7+3",10/14
same,"CR/CRi, number of patients","previously untreated AML; All Risks, patients evaluable for response N = 15, alvocidib plus 7+3, all dose levels",12/15 and 12
same,MRD− Evaluable (%),previously untreated AML; [5],(56) %
same,"MRD− Evaluable, number of patients",previously untreated AML; [5],5/9
same,CR/CRi (%),previously untreated AML; [6],(70) %
same,"CR/CRi, number of patients",previously untreated AML; [6],7
same,MRD− (%),previously untreated AML; [7],(50) %
same,"MRD−, number of patients",previously untreated AML; [7],5/10
same,"MTD, IV bolus part","previously untreated AML; human, in vivo, iv",30 mg/m^2
same,"MTD, infusion part","previously untreated AML; human, in vivo, iv",60 mg/m^2
same,MRD Status,"previously untreated AML; per patient, alvocidib dose level 20, 30 mg/m^2 (bolus, infusion) days 1-3, then 7+3",Negative
same,MRD Status,"previously untreated AML; per patient, alvocidib dose level 30, 40 mg/m^2 (bolus, infusion) days 1-3, then 7+3",Negative
same,Best Response,"previously untreated AML; per patient, alvocidib dose level 30, 60 mg/m^2 (bolus, infusion) days 1-3, then 7+3, PD = progression of disease",CRi
same,MCL-1 expression,[2],suppresses MCL-1 expression throughout the treatment regimen of cytarabine and daunorubicin
same,IC50,[1]; [4],2.2 to 567 nM
same,tumor growth inhibition (TGI),MV4-11 AML xenograft; alvocidib 1.25 mg/kg,60.0%
CN1CC[C@H](c2c(OP(=O)(O)O)cc(O)c3c(=O)cc(-c4ccccc4Cl)oc23)[C@H](O)C1 [Structural Formula I],oral bioavailability,[3],orally bioavailable
